In patent publication US20090182014A1, “INSECTICIDAL COMPOSITIONS COMPRISING COMPOUNDS HAVING INHIBITORY ACTIVITY VERSUS ACYL COA: CHOLESTEROL ACYLTRANSFERASE OR SALTS THEREOF AS EFFECTIVE INGREDIENTS” (priority 2003, published 2009):
Values after ≈ are worked out from the molar mass of the structure shown.

What was measured:
[1] = molecular target: acyl CoA:cholesterol acyltransferase (ACAT); assay: Assay for ACAT inhibitory activity using hepatic microsomes, cholesterol and 14C-labeled oleoyl-CoA; type: biochemical
Description: In the method, ACAT activity was determined using hepatic microsomes as a source of ACAT with substrates of cholesterol and ^14C-labeled oleoyl-CoA. The radioactivity of the reaction product cholesterol ester was estimated as the ACAT activity.
In detail, a reaction mixture was prepared as follows. […] To stabilize enzyme reaction, bovine serum albumin was added to the mixture to a final concentration of 30 μM. Then, a sample dissolved in DMSO or methanol was added to the mixture. The resulting reaction mixture was preincubated at 37° C. for 30 min. The enzyme reaction was then initiated by adding [1-^14C]-oleoyl Coenzyme A solution to a final concentration of 0.04 μCi. After 30 min of incubation at 37° C., the reaction was stopped by addition of 1 ml of an isopropanol-heptane solution. Then, 0.6 ml of n-heptane and 0.4 ml of KPB buffer were added to the terminated reaction mixture. The mixture was well mixed and allowed to stand at room temperature for 2 min. After phase separation, 200 μl of the supernatant was put into a scintillation vial. After adding 4 ml of a scintillation cocktail (Lipoluma, Lumac Co.) to the vial, the amount of synthesized cholesteryl oleate was measured with a scintillation counter (Packard Delta-200). The inhibitory activity versus ACAT was calculated according to the following Equation 1:
Inhibitory activity (%)=[1−(T−B/C−B)]×100
T: cpm in a test reaction mixture that contains a compound of the present invention along with an enzyme source;

[2] = tested on: Tenebrio molitor L larvae; assay: Diet (wheat bran) assay against Tenebrio molitor L larvae: larval weight, growth, killing; type: in vivo; settings: 1 mg mixed with 10 g wheat bran; for larval weight-reducing effect in T. molitor L larvae (FIG. 8): larval weight on day 3 and 7, compared with control
Description: Among the present compounds with an ACAT inhibitory activity, the phenylpyropene A, B and C (Formulas 2 to 4) were tested for weight-reducing effect in larval insects. In this test, larvae of Tenebrio molitor L. was used as an experimental insect, which was obtained from the insect research lab, KRIBB, Korea. Healthy second-instar larvae (10-12 mm) of Tenebrio molitor L was selected 24 hrs before performing this test. Each of the compounds of Formulas 2 to 4 was dissolved in 10% acetone to a final concentration of 1 mg/ml and serially diluted. 1 ml of the diluted compound solution was mixed with […] of wheat bran commonly used as a diet. The resulting mixture was put into a glass petri dish (90×20 mm), and the petri dish was placed in a desiccator for about 2 hrs under pressure to remove the organic solvent. After being weighed, 10 highly mobile larvae of T. molitor L for each test set were placed in a petri dish (87×15 mm) with a filter paper disk, together with the mixture of the present compound and wheat bran. Then, the larvae were grown in at 25±±1° C. under 40-45% relative humidity with a 16-hour light/8-hours dark cycle. After 72 hrs, larval weight and diet intake were recorded every three days. This assay was performed on three replicates, and a control group was treated with 10% acetone.

[3] = tested on: Plutella xylostella L larvae; assay: Leaf-disk bioassay against Plutella xylostella L larvae; type: in vivo; settings: treated with 0.001 to 1 mg; investigated at intervals of 24 hrs; compared with control
Description: Larvae of Plutella xylostella L was used as an experimental insect in this test, which was obtained from the Insect Research Lab, Korean Research Institute of Bioscience and Biotechnology (KRIBB), Oun-dong, Yusong-ku, Taejon, Korea. After being weighed accurately, a proper amount of the present compounds with an ACAT inhibitory activity were was dissolved in acetone, mixed with nine volumes of a 100 ppm Triton X-100 stock solution, and serially diluted, thus giving active compound solutions. A diet for the growth of the P. xylostella L larvae was prepared, as follows: leaves of cabbages with uniform growth were cut into leaf disks (3.0 cm in diameter), dipped in the active compound solutions for 30 sec, and dried in a hood for 60 min. Each of the active compound-treated leaf disks was put in a petri dish (55×20 mm) with a filter paper disk. Then, 10 second-instar larvae of P. xylostella L were placed on each leaf disc using a soft brush with caution not to damage the larvae, and grown in an incubator (25±1° C., 40-45% relative humidity, 16L:8D). After 24 hrs and 48 hrs, mortality was recorded. […] This leaf-disk bioassay was performed on three replicates, and LC50 (50% lethal concentration) was calculated by the Probit method developed by Finney (1982).

[4] = hepatic microsomes as source of ACAT
[5] = calculated from the μg/ml value and molecular weight

Molecule: CC(=O)OCC1(C)C2C[C@H](OC(C)=O)[C@@]3(C)Oc4cc(-c5ccccc5)oc(=O)c4[C@H](O)C3[C@@]2(C)CC[C@@H]1OC(C)=O (stereo partly shown) [phenylpyropene A]
- IC50 ([1]; calculated from the ng/ml value and molecular weight): 0.086 µM
- IC50 (compound concentration to inhibit by 50% of ACAT activity) [1, 4]: 500 ng/mL
- larval growth inhibition in T. molitor L larvae (FIG. 9) [2]: larval growth inhibition was found
- larval weight-reducing effect in T. molitor L larvae (FIG. 8) [2]: lasting larval weight-reducing effect

Molecule: O=C(/C=C/C=C/c1ccc2c(c1)OCO2)N1CCCCC1 [Formula 10]
- ACAT inhibitory activity ([1]; concentration 20 μg/ml): 17.6%
- ACAT inhibitory activity ([1]; concentration 100 μg/ml): 82.0%

Molecule: CCCCCCCC/C=C\CCCCCCCC(=O)Nc1c(OC)cc(OC)cc1OC [Formula 7]
- ACAT inhibitory activity ([1]; concentration 20 μg/ml): 96.6%
- ACAT inhibitory activity ([1]; concentration 100 μg/ml): 97.8%

Molecule: CC(=O)OC1CC[C@@]2(C)C(CC[C@@]3(C)Oc4cc(-c5ccccc5)oc(=O)c4CC23)C1(C)C (stereo partly shown) [phenylpyropene C]
- IC50 [1, 5]: 16 µM
- IC50 (ACAT activity) [1, 4]: 7.2 µg/mL (≈ 16 µM)
- larval growth inhibition in T. molitor L larvae (FIG. 9) [2]: larval growth inhibition was found
- larval weight-reducing effect in T. molitor L larvae (FIG. 8) [2]: lasting larval weight-reducing effect

Molecule: CC(=O)OCC1(C)C(OC(C)=O)CC[C@@]2(C)C1CC[C@@]1(C)Oc3cc(-c4ccccc4)oc(=O)c3CC21 (stereo partly shown) [phenylpyropene B]
- IC50 [1, 5]: 12.8 µM
- IC50 (ACAT activity) [1, 4]: 6.5 µg/mL (≈ 12.8 µM)
- larval weight-reducing effect in T. molitor L larvae (FIG. 8) [2]: lasting larval weight-reducing effect

Molecule: CCCCCCCNC(=O)CCCCSC1NC(c2ccccc2)C(c2ccccc2)N1 (stereo not shown) [Formula 11]
- ACAT inhibitory activity ([1]; concentration 20 μg/ml): 84.8%
- ACAT inhibitory activity ([1]; concentration 100 μg/ml): 89.6%

Molecule: CC(C)c1cccc(C(C)C)c1OC(=O)NS(=O)(=O)Oc1c(C(C)C)cccc1C(C)C [Formula 8]
- ACAT inhibitory activity ([1]; concentration 20 μg/ml): 84.5%
- ACAT inhibitory activity ([1]; concentration 100 μg/ml): 93.8%

Molecule: CC(=O)OC[C@@]1(C)[C@@H]2C[C@H](OC(C)=O)[C@@]3(C)Oc4cc(-c5cccnc5)oc(=O)c4[C@H](O)[C@@H]3[C@@]2(C)CC[C@@H]1OC(C)=O [pyripyropene A]
- insecticidal effect against P. xylostella L larvae (FIG. 6) [3]: lasting insecticidal effect in a dose-dependant manner
- T. molitor L insect killed in the larval and pupa stages [2]: most of the T. molitor L insect was killed in the larval and pupa stages
- larval growth inhibition in T. molitor L larvae (FIG. 9) [2]: larval growth inhibition was found

Molecule: pheophorbide a
- larval growth inhibition in T. molitor L larvae (FIG. 9) [2]: larval growth inhibition was found

Molecule: Cc1cc(Cc2cc(C)cc(C(C)(C)C)c2O)c(O)c(C(C)(C)C)c1 [Formula 9]
- ACAT inhibitory activity ([1]; concentration 20 μg/ml): 93.4%
- ACAT inhibitory activity ([1]; concentration 100 μg/ml): 98.4%
